{"source": "patent US9243036B2", "about": "“Anti-microbial activity of synthetic peptides” (THE UNITED STATES OF AMERICA, as represented by the …, priority 2012, dated 2016)", "format_in_all_cases": "cell-based", "key": {"P. aeruginosa [1]": {"tested_on": "P. aeruginosa", "assay": "Time-kill kinetics", "conditions": "P. aeruginosa ATCC 12121; 27853", "procedure": "(§1) In vitro anti-bacterial activity of EC5. The test microorganisms mentioned earlier in the experimental procedures were used to evaluate the bactericidal activity of EC5 peptide. The minimum inhibitory concentrations (MICs) of the peptide were determined by standard dilution assay as recommended by Clinical and Laboratory Standard Institutes (CLSI) guidelines (Azad, M. A., et al., (2011) Antimicrob. Agents Chemother. 55, 2137-2145). Bacteria were grown to mid-logarithmic phase in cation-supplemented Mueller-Hinton broth (MHB) (Becton Dickinson, Sparks, Md.) on an orbital shaker (37° C.) and diluted to a 0.5 McFarland standard to a final volume of 1 ml. Decreasing concentrations of the peptide were incubated with the microorganisms. Results were recorded by visual inspection after 24 h of incubation at 37° C. Assay was repeated three separate times to ensure reproducibility. […] EC5 concentrations 0x, 0.5x, 1x, and 2×MIC were incubated with logarithmic phase of bacteria of approximately 10^5 CFU/ml in an orbital shaker for 48 h at 37° C. Samples were drawn and plated on NA plates. Polymyxin B was used as a positive control and peptide with no anti-bacterial activity from our previous studies was used as a negative control."}, "E. coli [2]": {"tested_on": "E. coli", "assay": "Time-kill kinetics", "procedure": "as §1"}, "other bacteria tested": {"tested_on": "other bacteria tested", "assay": "2 h incubation of mid-logarithmic cultures with peptide, CFU on NA plates", "conditions": "even at 50 μg/ml", "procedure": "All bacterial strains used in this study originated from ATCC (Manassas, Va.): S. aureus (ATCC 25923; ATCC 35548), S. epidermidis (ATCC 35983), E. coli (ATCC 700928; ATCC 25922), P. aeruginosa (ATCC 27853; ATCC 12121), K pneumoniae (ATCC 10031; ATCC 13885) and B. cereus (ATCC 11778). Cultures were maintained and subcultured periodically on nutrient agar plates and stored at 4 to 8° C. until tested. Stock cultures of all bacteria were stored in tryptic soy broth with 10% glycerol at −70° C. Log-phase cultures of bacteria grown in Miller's Luria-Bertani (LB) broth (Mediatech Inc, Herndon, Va.) were concentrated by centrifugation at 3000×g and dilutions were prepared with phosphate-buffered saline (PBS; pH 7.4) (Mediatech Inc, Herndon, Va.). In all experiments bacterial titers were estimated by optical density and confirmed by quantitative culture by plating on nutrient agar (NA) plates.\nMid-logarithmic phase cultures of bacteria with an inoculum of 10^5 CFU/ml were incubated with peptide concentrations ranging from 0 to 50 μg/ml in a shaker incubator for 2 h following which the samples were plated on NA agar plates and CFU determined."}, "P. aeruginosa [3]": {"tested_on": "P. aeruginosa", "assay": "Membrane permeability by PI and SYTO9 uptake (LIVE/DEAD BACLIGHT)", "conditions": "SYTO9 and PI staining", "procedure": "(§2) The effects of EC5 on the membrane integrity of E. coli and P. aeruginosa cells were assessed using the LIVE/DEAD BACLIGHT™ kit (Invitrogen, Oregon) according to the manufacturer's protocol. Membrane integrity of the cells after the addition of different concentrations of peptide EC5 was measured using fluorescence micro plate reader (BioTek Instruments, Winooski, Vt.). Experiments were done in triplicates. PMB was used as a positive control.\n(§3) The membrane permeabilizing activity of EC5 was also studied using the SYTO9 and PI staining method. SYTO9 stain labels both live and dead bacteria when alone, but propidium iodide stains only cells with damaged membranes, reducing the level of green fluorescent SYTO9 when both the dyes are present. […] The ratio of green versus red fluorescence can be calculated as a measure of live bacteria. […] Polymyxin B, an AMP with a net charge of +5 with membrane permeabilizing activity was used as positive control."}, "E. coli [4]": {"tested_on": "E. coli", "assay": "Membrane permeability by PI and SYTO9 uptake (LIVE/DEAD BACLIGHT)", "conditions": "SYTO9 and PI staining", "procedure": "as §2, §3"}, "S. epidermidis": {"tested_on": "S. epidermidis", "assay": "MIC by standard dilution assay (CLSI)", "procedure": "as §1"}, "B. cereus": {"tested_on": "B. cereus", "assay": "MIC by standard dilution assay (CLSI)", "procedure": "as §1"}, "Gram-positive strains": {"tested_on": "Gram-positive strains", "assay": "MIC by standard dilution assay (CLSI)", "procedure": "as §1"}, "S. aureus [5]": {"tested_on": "S. aureus", "assay": "MIC by standard dilution assay (CLSI)", "procedure": "as §1"}, "S. aureus [6]": {"tested_on": "S. aureus", "assay": "Cytoplasmic membrane depolarization assay (diSC3-5)", "conditions": "EC5 64 μg/ml; after 45 min", "procedure": "Membrane depolarization activity (Δψ) of the peptide was determined with intact E. coli and P. aeruginosa cells and the membrane potential-sensitive fluorescent dye, 3,3′-dipropylthiadicarbocyanine Iodide (diSC (3)5) (Invitrogen, Oregon), according to described methods (Sims, P. J., et al (1974) Biochemistry 13, 3315-3330). Briefly, bacterial cells of mid-logarithmic phase were harvested by centrifugation and washed twice with HEPES buffer (5 mM HEPES, 5 mM glucose, pH 7.6). The cells were suspended in the same buffer to an OD of 0.05. The cell suspension was incubated with […] diSC (3)5 until maximal uptake of the dye. 100 mM KCl was added to equilibrate the cytoplasmic and external potassium ion concentration of peptide, and fluorescence was monitored at an excitation wavelength of 622 nm and an emission wavelength of 670 nm. […]\nCytoplasmic depolarization assay(Δψ) was performed using the membrane potential sensitive dye 3,3′-dipropylthiadicarbocyanine iodide (diSC3-5) (Zang, L. et al., (2001) J. Biol. Chem. 276, 35714-35722). This dye can cross the outer membrane of the bacterial cell and become concentrated in the cytoplasmic membrane and thereby it self-quenches its own fluorescence. Upon addition of a membrane-permeabilizing agent the dye is released with consequent increase in the fluorescence. […]"}}, "note": "Residues, ends and D or L forms follow the SMILES beside them."}
{"smiles": "CC[C@H](C)[C@H](NC(=O)[C@H](CCCCN)NC(=O)[C@H](CCCNC(=N)N)NC(=O)[C@H](Cc1ccccc1)NC(=O)[C@H](CC(C)C)NC(=O)[C@H](CC(C)C)NC(=O)[C@@H](N)CCCNC(=N)N)C(=O)N[C@@H](CCCNC(=N)N)C(=O)N[C@@H](CCCNC(=N)N)C(=O)N[C@@H](CC(C)C)C(=O)N[C@@H](CCCCN)C(=O)N[C@@H](CCCNC(=N)N)C(=O)O", "note": "[EC5, RLLFRKIRRLKR] (H-RLLFRKIRRLKR-OH; N-terminus and C-terminus assumed)", "values": [{"measurement": "regrowth", "setting": "P. aeruginosa [1]", "value": "no regrowth until 24 hrs"}, {"measurement": "time to complete inhibition", "setting": "P. aeruginosa [1]", "value": 5, "unit": "min"}, {"measurement": "reduction of E. coli", "setting": "E. coli [2]; 4 μg/ml, around 45 min of exposure", "value": "2-3 log10 CFU/ml"}, {"measurement": "regrowth", "setting": "E. coli [2]; E. coli ATCC 700928, 25922", "value": "no regrowth until 24 hrs"}, {"measurement": "time to complete inhibition", "setting": "E. coli [2]; E. coli ATCC 700928, 25922", "value": 5, "unit": "min"}, {"measurement": "killing of E. coli", "setting": "E. coli [2]; MBC concentration of 8 μg/ml", "value": "complete killing"}, {"measurement": "activity against the other bacteria tested", "setting": "other bacteria tested", "value": "no activity"}, {"measurement": "concentration showing maximum permeability of cells", "setting": "P. aeruginosa [3]", "value": 12.5, "unit": "µg/mL"}, {"measurement": "concentration showing maximum permeability of cells", "setting": "E. coli [4]", "value": 6.25, "unit": "µg/mL"}, {"measurement": "activity against S. epidermidis", "setting": "S. epidermidis", "value": "not active"}, {"measurement": "activity against B. cereus", "setting": "B. cereus", "value": "not active"}, {"measurement": "activity against Gram-positive strains", "setting": "Gram-positive strains", "value": "no activity"}, {"measurement": "activity against S. aureus", "setting": "S. aureus [5]", "value": "not active"}, {"measurement": "release of diSC3-5 from S. aureus", "setting": "S. aureus [6]", "value": "no trace of release"}]}
